From US11434242B2, “Dopamine-b-hydroxylase inhibitors” (BIAL-PORTELA & Cª, S.A., priority 2017, dated 2022)

Target: T1, Dopamine beta hydroxylase (Homo sapiens, UniProt P09172)
T1 construct: 125 μl of plasma; tissue Instituto Português do Sangue Transplantação; host or cells: human plasma from healthy donors
T1 sequence (P09172 40-617 limits assumed): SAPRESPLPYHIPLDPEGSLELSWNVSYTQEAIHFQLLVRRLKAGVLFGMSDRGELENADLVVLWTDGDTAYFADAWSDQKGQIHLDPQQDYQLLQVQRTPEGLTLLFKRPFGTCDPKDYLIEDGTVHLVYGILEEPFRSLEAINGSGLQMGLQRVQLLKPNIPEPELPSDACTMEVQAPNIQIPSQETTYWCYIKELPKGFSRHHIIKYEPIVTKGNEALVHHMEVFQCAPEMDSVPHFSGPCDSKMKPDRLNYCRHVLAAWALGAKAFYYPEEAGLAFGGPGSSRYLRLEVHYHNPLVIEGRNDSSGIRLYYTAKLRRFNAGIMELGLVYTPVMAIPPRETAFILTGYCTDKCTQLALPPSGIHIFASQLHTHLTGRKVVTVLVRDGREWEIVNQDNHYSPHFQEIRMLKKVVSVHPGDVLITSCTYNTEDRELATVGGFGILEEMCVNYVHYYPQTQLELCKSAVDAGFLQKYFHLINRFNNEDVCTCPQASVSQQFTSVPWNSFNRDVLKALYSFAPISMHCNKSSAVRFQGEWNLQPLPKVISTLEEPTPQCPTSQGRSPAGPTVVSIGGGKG
Assay: Dopamine beta hydroxylase activity in human plasma
Format: biochemical
Settings: for Plasma (0.01 μM), activity in % of control: inhibitor 0.01 μM; for Plasma (0.1 μM), activity in % of control: inhibitor 0.1 μM; for Plasma (1 μM), activity in % of control: inhibitor 1 μM
Procedure: Furthermore, the ability of a compound to inhibit DβH activity may be assessed in human plasma using the following assay. […]. Dopamine beta hydroxylase activity in human plasma was measured by the method of Nagatsu and Udenfriend (Nagatsu, T. and Udenfriend, S. “Photometric assay of dopamine-μ-hydroxylase activity in human blood.” Clin. Chem. 18(9) 980-983, 1972) with minor modifications. Catalase, N-ethylmaleimide, tyramine, disodium fumarate, pargyline, sodium acetate, ascorbic acid, copper sulfate and octopamine were obtained from Sigma Chemical Co., St. Louis, Mo. 63178. Human plasma samples were obtained from healthy donors (Instituto Português do Sangue Transplantação, Centro Sangue Transplantação, Porto, Portugal). From date of collection, plasma was stored at −80° C. until use. Test compounds were initially prepared in dimethyl sulfoxide at a concentration of 10 mM and diluted in dimethyl sulfoxide to the required concentrations. Test compounds were further diluted in ultrapure water to a concentration 20-fold to that of the final concentration to be tested. Final concentrations of test compounds were 10, 100 and 1000 nM. The various reagents used to make up the incubation buffer were premixed and consisted of the following components: sodium acetate buffer (1 M, pH 5.0, 18 ml), sodium fumarate (0.2 M, 4.5 ml), ascorbic acid (0.2 M, 4.5 ml, freshly prepared), pargyline (20 mM, freshly prepared, 4.5 ml), N-ethylmaleimide (0.2 M, 4.5 ml), catalase (10 000 U/ml, 9 ml), copper sulfate (20 μM, 4.5 ml) and 4.5 ultrapure water. The standard incubation mixture (total volume, 950 μl) contained: 50 μL of compound or vehicle (dimethyl sulfoxide 2%); 700 μL of incubation buffer; 125 μl of plasma (or saline for blank reaction or standard curve); 75 μl of saline. The reaction mixture was placed in water bath, shaking at 37° C. and pre-incubated for 10 minutes. Tyramine (0.5 M) was added and incubation proceeded for 45 minutes. The reaction contents were exposed to air. A sample of enzyme preparation (with 125 μl of plasma) that had been added perchloric acid 2 M at the end of the pre-incubation period was used as blank. A blank for each of the tested compounds was used. For octopamine standard curve, perchloric acid 2 M was replaced by increasing concentrations of octopamine prepared in perchloric acid 2 M (0.5, 1, 2.5, 5, 7.5, 10, 15, 20 μg/ml, final concentration). The incubation was stopped by adding 200 μl of 2 M molar perchloric acid, and the mixture was centrifuged at 9000 g for 5 min. The supernatant fluid (800 μL) was transferred to a column (SPE cartridge ISOLUTE SCX-3, 100 mg) and centrifuged at 150 g for 2 min. The column was washed two more times with 0.5 ml of ultrapure water by centrifuging at 150 g for 2 min. The adsorbed octopamine was eluted twice with 0.3 ml of 4 M ammonium hydroxide by centrifuging at 150 g for 2 min. Octopamine in the eluate was then converted to p-hydroxybenzaldehyde by adding 200 μl of sodium periodate (2%) and incubating for 6 min. Excess periodate was than reduced by adding 200 μl of sodium metabisulfite (10%). Absorbance was measured at […] in a 96-well plate by use of a SpectraMAX plus 384 (Molecular Devices) with software SOFTmax® PRO Software 5.3 spectrophotometer. Absorbance was linear with octopamine concentration from 0.5 to 20 μg/ml. Dopamine beta hydroxylase activity is determined as nmol of octopamine formed/ml of plasma/hour and effect of compounds is presented as % control.
Results are reported in the table below as activity in % of control at the inhibitor concentration tested.

Row | Structure (SMILES) | Plasma (0.01 μM), activity in % of control | Plasma (0.1 μM), activity in % of control | Plasma (1 μM), activity in % of control
1 | CN(C(=O)Cc1[nH]c(=S)n2c1C[C@H](c1c(F)ccc(Br)c1F)C2)C1CCCCC1 [Example 132, (R)-2-(6-(3-bromo-2,6-difluorophenyl)-3-thioxo-2,5,6,7-tetrahydro-3H-pyrrolo[1,2-c]imidazol-1-yl)-N-cyclohexyl-N-methylacetamide] | 91.9 % of control | 62.3 % of control | 
2 | CN(C(=O)Cc1[nH]c(=S)n2c1C[C@@H](c1c(F)ccc(Cl)c1F)C2)C1CCOCC1 [Example 380, (S)-2-(6-(3-chloro-2,6-difluorophenyl)-3-thioxo-2,5,6,7-tetrahydro-3H-pyrrolo[1,2-c]imidazol-1-yl)-N-methyl-N-(tetrahydro-2H-pyran-4-yl)acetamide] | 74.9 % of control | 27.4 % of control | 
3 | CN1CCN(C(=O)Cc2c3n(c(=S)n2C)C[C@@]2(c4cc(Cl)ccc4F)C[C@@H]32)CC1 [Example 326, 2-((5aS,6aR)-5a-(5-chloro-2-fluorophenyl)-2-methyl-3-thioxo-2,3,5,5a,6,6a-hexahydrocyclopropa[3,4]pyrrolo[1,2-c]imidazol-1-yl)-1-(4-methylpiperazin-1-yl)ethan-1-one] | 96.6 % of control | 59.5 % of control | 
4 | CC(C)NCCc1[nH]c(=S)n2c1[C@@H]1C[C@]1(c1cc(Cl)ccc1F)C2.Cl [Example 175, (5aS,6aR)-5a-(5-chloro-2-fluorophenyl)-1-(2-(isopropylamino)ethyl)-5,5a,6,6a-tetrahydrocyclopropa[3,4]pyrrolo[1,2-c]imidazole-3(2H)-thione hydrochloride] |  | 61.7 % of control | 13.8 % of control
5 | Cn1c(CCc2cccnc2)c2n(c1=S)C[C@@H](c1c(F)c(F)cc(F)c1F)C2 [Example 259, (R)-2-methyl-1-(2-(pyridin-3-yl)ethyl)-6-(2,3,5,6-tetrafluorophenyl)-6,7-dihydro-2H-pyrrolo[1,2-c]imidazole-3(5H)-thione] | 90.8 % of control | 76.1 % of control | 
6 | Cn1c(CCC(=O)O)c2n(c1=S)C[C@@H](c1c(F)c(F)cc(F)c1F)C2 [Example 260, (R)-3-(2-methyl-6-(2,3,5,6-tetrafluorophenyl)-3-thioxo-2,5,6,7-tetrahydro-3H-pyrrolo[1,2-c]imidazol-1-yl)propanoic Acid] | 84.1 % of control | 26.5 % of control | 
7 | O=C(Cc1[nH]c(=S)n2c1C[C@@H](c1c(F)ccc(Cl)c1F)C2)NCC(F)(F)F [Example 113, (S)-2-(6-(3-chloro-2,6-difluorophenyl)-3-thioxo-2,5,6,7-tetrahydro-3H-pyrrolo[1,2-c]imidazol-1-yl)-N-(2,2,2-trifluoroethyl)acetamide] | 85.1 % of control | 25.6 % of control | 

More lines, now with the values ahead:

Row | Plasma (0.01 μM), activity in % of control | Plasma (0.1 μM), activity in % of control | Plasma (1 μM), activity in % of control | Structure (SMILES)
8 | 101.8 % of control | 79.4 % of control |  | O=C(Cc1[nH]c(=S)n2c1C[C@H](c1c(F)c(F)cc(F)c1F)C2)N[C@@H]1CCCOC1 [Example 386, N—((R)-tetrahydro-2H-pyran-3-yl)-2-((R)-3-thioxo-6-(2,3,5,6-tetrafluorophenyl)-2,5,6,7-tetrahydro-3H-pyrrolo[1,2-c]imidazol-1-yl)acetamide]
9 | 73.7 % of control | 20.2 % of control |  | O=C(Cc1[nH]c(=S)n2c1[C@@H]1C[C@]1(c1c(F)ccc(Cl)c1F)C2)NCc1cccnc1 [Example 151, 2-((5aS,6aR)-5a-(3-chloro-2,6-difluorophenyl)-3-thioxo-2,3,5,5a,6,6a-hexahydrocyclopropa[3,4]pyrrolo[1,2-c]imidazol-1-yl)-N-(pyridin-3-ylmethyl)acetamide]
10 | 89.6 % of control | 36.7 % of control |  | O=C(Cc1[nH]c(=S)n2c1C[C@@H](c1c(F)ccc(Cl)c1F)C2)N1CCC(F)(F)CC1 [Example 111, (S)-2-(6-(3-chloro-2,6-difluorophenyl)-3-thioxo-2,5,6,7-tetrahydro-3H-pyrrolo[1,2-c]imidazol-1-yl)-1-(4,4-difluoropiperidin-1-yl)ethan-1-one]
11 | 37.6 % of control | 6.0 % of control |  | Cn1c(CC(=O)N[C@@H]2CCCOC2)c2n(c1=S)C[C@H](c1c(F)ccc(Br)c1F)C2 [Example 382, 2-((S)-6-(3-bromo-2,6-difluorophenyl)-2-methyl-3-thioxo-2,5,6,7-tetrahydro-3H-pyrrolo[1,2-c]imidazol-1-yl)-N—((R)-tetrahydro-2H-pyran-3-yl)acetamide]
12 | 86.2 % of control | 38.8 % of control |  | Cn1c(CC(=O)N2CCCC2)c2n(c1=S)C[C@@]1(c3cc(Cl)ccc3F)C[C@@H]21 [Example 309, 2-((5aS,6aR)-5a-(5-chloro-2-fluorophenyl)-2-methyl-3-thioxo-2,3,5,5a,6,6a-hexahydrocyclopropa[3,4]pyrrolo[1,2-c]imidazol-1-yl)-1-(pyrrolidin-1-yl)ethan-1-one]
13 |  | 36.6 % of control | 2.9 % of control | O=C(Cc1[nH]c(=S)n2c1[C@@H]1C[C@]1(c1cc(Br)ccc1F)C2)N1CCCC1 [Example 70, 2-((5aS,6aR)-5a-(5-bromo-2-fluorophenyl)-3-thioxo-2,3,5,5a,6,6a-hexahydrocyclopropa[3,4]pyrrolo[1,2-c]imidazol-1-yl)-1-(pyrrolidin-1-yl)ethan-1-one]
14 | 35.4 % of control | 6.6 % of control |  | Cn1c(CC(=O)NC2CCCCC2)c2n(c1=S)C[C@H](c1c(F)ccc(Cl)c1F)C2 [Example 356, (S)-2-(6-(3-chloro-2,6-difluorophenyl)-2-methyl-3-thioxo-2,5,6,7-tetrahydro-3H-pyrrolo[1,2-c]imidazol-1-yl)-N-cyclohexylacetamide]
15 | 47.5 % of control | 11.7 % of control |  | Cn1c(CC(=O)NC2COC2)c2n(c1=S)C[C@H](c1c(F)ccc(Cl)c1F)C2 [Example 333, (S)-2-(6-(3-chloro-2,6-difluorophenyl)-2-methyl-3-thioxo-2,5,6,7-tetrahydro-3H-pyrrolo[1,2-c]imidazol-1-yl)-N-(oxetan-3-yl)acetamide]
